Like-named read-outs stand apart in the source and are kept apart here.
Assays:
[1] = tested on: Ba/F3 cells expressing EGFR mutations; test: Cell proliferation assay, Ba/F3 cells expressing EGFR mutations (CellTiter-Glo, 72 hours); assay type: cell-based; details: CellTiter-Glo
Description: (§1) Biological Example 2: Cell Proliferation Assays
(§2) Ba/F3 cells expressing EGFR mutations were seeded in 384-well plates at 5000 cells/well in RPMI1640 medium containing […]. PC-9 at 500 cells/well was seeded into 384-well plates in RPMI1640 medium with 10% FBS. After overnight incubation, the assay plates were dosed with compounds at a series of concentrations. Alongside dosing the assay plates, the day 0 plate was processed using CellTiter-Glo® Luminescent Cell Viability Assay (Promega) to measure the number of viable cells (G0). The assay plates were further incubated for 72 hours and the number of viable cells (G3) was measured. The percentage of proliferation was calculated as: […]=100×(G3 value of sample well−G0 value)/(G3 value of DMSO control−G0 value). The concentration of compound producing 50% proliferation inhibition (GI50) was further calculated in best-fit curves using XLFit software. N/A=not available.

PC-9 = test: Cell proliferation assay, PC-9 cells (CellTiter-Glo, 72 hours); assay type: cell-based; details: PC9 cells, CellTiter-Glo, read-out: PC9 GI50
Description: as §1, §2

[2] = BaF3 cells, EGFR DEL19-C797S, read-out: DEL19-C797S/BaF3 GI50
[3] = BaF3 cells, EGFR DEL19-T790-C797S, read-out: DEL19-T790-C797S/BaF3 GI50
[4] = BaF3 cells, EGFR L858R, read-out: L858R/BaF3 GI50
[5] = BaF3 cells, EGFR L858R-C797S, read-out: L858R-C797S/BaF3 GI50
[6] = BaF3 cells, EGFR L858R-T790-C797S, read-out: L858R-T790-C797S/BaF3 GI50
[7] = BaF3 cells, EGFR L858R-T790M, read-out: L858R-T790M/BaF3 GI50
[8] = EGFR DEL19-T790M, read-out: DEL19-T790M GI50

Row | Compound | GI50 ([1]; Mus musculus, BaF3, 72 h, BaF3 cells, EGFR DEL19-C797S, read-out: DEL19-C797S/BaF3 GI50) | GI50 ([1]; Mus musculus, BaF3, 72 h, BaF3 cells, EGFR DEL19-T790-C797S, read-out: DEL19-T790-C797S/BaF3 GI50) | GI50 ([1]; Mus musculus, BaF3, 72 h, BaF3 cells, EGFR L858R, read-out: L858R/BaF3 GI50) | GI50 ([1]; Mus musculus, BaF3, 72 h, BaF3 cells, EGFR L858R-C797S, read-out: L858R-C797S/BaF3 GI50) | GI50 ([1]; Mus musculus, BaF3, 72 h, BaF3 cells, EGFR L858R-T790-C797S, read-out: L858R-T790-C797S/BaF3 GI50) | GI50 ([1]; Mus musculus, BaF3, 72 h, BaF3 cells, EGFR L858R-T790M, read-out: L858R-T790M/BaF3 GI50) | GI50 ([1]; Mus musculus, BaF3, 72 h, EGFR DEL19-T790M, read-out: DEL19-T790M GI50) | GI50 (PC-9; Homo sapiens, PC-9, 72 h) | GI50 [1, 2] | GI50 [1, 3] | GI50 [1, 4] | GI50 [1, 5] | GI50 [1, 6] | GI50 [1, 7] | GI50 [1, 8] | GI50 (PC-9)
1 | C[C@@H]1CCCOc2c(cnn2C)-c2cc(cn(C3CC3)c2=O)C(=O)Nc2nc3ccc(N4CCN(C)CC4)cc3n2C1 [Example A15, (11R)-26-cyclopropyl-5,11-dimethyl-16-(4-methylpiperazin-1-yl)-7-oxa-4,5,13,20,22,26-hexaazapentacyclo[22.3.1.0^{2,6}.0^{13,21}.0^{14,19}]octacosa-1(28),2(6),3,14,16,18,20,24-octaene-23,27-dione] | 495 nM | 2100 nM | 1390 nM | 1580 nM | 4910 nM | 1550 nM | 2620 nM | 2070 nM | – | – | – | – | – | – | – | –
2 | CN(C)CC1(F)CN(c2ccc3nc4n(c3c2)C23CCC(CN(CCOc5c(cnn5C)-c5cc(cn(C)c5=O)C(=O)N4)C2)C3)C1 (single isomer, unassigned) [Example A72A] | – | – | – | – | – | – | – | – | 351 nM | 1060 nM | 866 nM | 632 nM | 1820 nM | 2770 nM | 1230 nM | 1060 nM
3 | CN(C)[C@@H]1CCN(c2ccc3nc4n(c3c2)C23CCC(CN(CCOc5c(cnn5C)-c5cc(cn(C)c5=O)C(=O)N4)C2)C3)C1 (single isomer, unassigned) [Example A66C] | – | – | – | – | – | – | – | – | 156 nM | 548 nM | 1580 nM | 688 nM | 549 nM | 1520 nM | 723 nM | 703 nM

More lines, in order of falling GI50 [1, 2], values ahead:

Row | GI50 ([1]; Mus musculus, BaF3, 72 h, BaF3 cells, EGFR DEL19-C797S, read-out: DEL19-C797S/BaF3 GI50) | GI50 ([1]; Mus musculus, BaF3, 72 h, BaF3 cells, EGFR DEL19-T790-C797S, read-out: DEL19-T790-C797S/BaF3 GI50) | GI50 ([1]; Mus musculus, BaF3, 72 h, BaF3 cells, EGFR L858R, read-out: L858R/BaF3 GI50) | GI50 ([1]; Mus musculus, BaF3, 72 h, BaF3 cells, EGFR L858R-C797S, read-out: L858R-C797S/BaF3 GI50) | GI50 ([1]; Mus musculus, BaF3, 72 h, BaF3 cells, EGFR L858R-T790-C797S, read-out: L858R-T790-C797S/BaF3 GI50) | GI50 ([1]; Mus musculus, BaF3, 72 h, BaF3 cells, EGFR L858R-T790M, read-out: L858R-T790M/BaF3 GI50) | GI50 ([1]; Mus musculus, BaF3, 72 h, EGFR DEL19-T790M, read-out: DEL19-T790M GI50) | GI50 (PC-9; Homo sapiens, PC-9, 72 h) | GI50 [1, 2] | GI50 [1, 3] | GI50 [1, 4] | GI50 [1, 5] | GI50 [1, 6] | GI50 [1, 7] | GI50 [1, 8] | GI50 (PC-9) | Compound
4 | – | – | – | – | – | – | – | – | 177 nM | 466 nM | 1140 nM | 709 nM | 600 nM | 2130 nM | 622 nM | 705 nM | CN(C)[C@H]1CCN(c2ccc3nc4n(c3c2)C23CCC(CN(CCOc5c(cnn5C)-c5cc(cn(C)c5=O)C(=O)N4)C2)C3)C1 (single isomer, unassigned) [Example A66A]
5 | – | – | – | – | – | – | – | – | 135 nM | 587 nM | 312 nM | 193 nM | 523 nM | 450 nM | 477 nM | 295 nM | CN1CCN(C2CCN(c3ccc4nc5n(c4c3)C34CCC(CN(CCOc6c(cnn6C)-c6cc(cn(C)c6=O)C(=O)N5)C3)C4)C2)CC1 (single isomer, unassigned) [Example A80A, 15,21-Dimethyl-5-[3-(4-methylpiperazin-1-yl)pyrrolidin-1-yl]-23-oxa-2,9,11,15,20,21,26-heptaazaheptacyclo[24.4.1.1^{1,28}.1^{13,17}.0^{2,10}.0^{3,8}.0^{18,22}]tritriaconta-3,5,7,9,13,17(33),18(22),19-octaene-12,16-dione]
6 | – | – | – | – | – | – | – | – | 94 nM | 302 nM | 550 nM | 357 nM | 184 nM | 1100 nM | 190 nM | 515 nM | CN1CC2(CCN(c3ccc4nc5n(c4c3)C34CCC(CN(CCOc6c(cnn6C)-c6cc(cn(C)c6=O)C(=O)N5)C3)C4)C2)C1 (single isomer, unassigned) [Example A73A]
7 | – | – | – | – | – | – | – | – | 0.5 nM | 0.7 nM | 0.63 nM | 0.5 nM | 0.73 nM | 0.67 nM | 0.7 nM | 3.6 nM | CN1CCN(C2CCN(c3ccc4nc5n(c4c3)C34CCC(CN(CCOc6c(cnn6C)-c6cc(cn(C)c6=O)C(=O)N5)C3)C4)C2)CC1 (single isomer, unassigned) [Example A80B2, 15,21-Dimethyl-5-[3-(4-methylpiperazin-1-yl)pyrrolidin-1-yl]-23-oxa-2,9,11,15,20,21,26-heptaazaheptacyclo[24.4.1.1^{1,28}.1^{13,17}.0^{2,10}.0^{3,8}.0^{18,22}]tritriaconta-3,5,7,9,13,17(33),18(22),19-octaene-12,16-dione]
